Assay results taken from article PMC4782136 (Scientific Reports, 2016).
Like-named read-outs stand apart in the source and are kept apart here. Residues, ends and D or L forms follow the SMILES beside them. *: point of attachment. Arachidoyl = CCCCCCCCCCCCCCCCCCCC(=O)*; Stearoyl = CCCCCCCCCCCCCCCCCC(=O)*; Palmitoyl = CCCCCCCCCCCCCCCC(=O)*

Key:
[1] = tested on: influenza A/Puerto Rico/8/34 (H1N1); settings: /Puerto Rico/8/34, 24 h
in vitro = settings: dog
[2] = tested on: clinical isolate 690 (H3 subtype); assay: microbe, parasite or virus in culture; format: cell-based; settings: Influenza A virus, read-out: IC50 ± SD, H3 (690)
[3] = tested on: influenza A/Aichi/2/68 (H3N2); assay: microbe, parasite or virus in culture; format: cell-based; settings: H3N2, read-out: IC50 ± SD, H3N2
[4] = tested on: clinical isolate 699 (H3 subtype); assay: microbe, parasite or virus in culture; format: cell-based; settings: Influenza A virus, read-out: IC50 ± SD, H3 (699)
[5] = tested on: influenza A/Puerto Rico/8/34 (H1N1); assay: microbe, parasite or virus in culture; settings: H1N1, MDCK, read-out: IC50 ± SD
influenza B virus = assay: microbe, parasite or virus in culture; format: cell-based; settings: read-out: IC50 ± SD, B

Which IC50 [1] does the source give for CCCCCCCCCCCCCCCC(=O)N[C@@H](CCCCN)C(=O)N[C@@H](CCCCN)C(=O)N[C@@H](Cc1c[nH]c2ccccc12)C(=O)N[C@@H](CCCCN)C(=O)NCC(=O)NCC(=O)NCC(=O)N[C@@H](C)C(=O)N[C@@H](CCCNC(=N)N)C(=O)N[C@@H](CC(C)C)C(=O)N1CCC[C@H]1C(=O)N[C@@H](CCCNC(=N)N)C(N)=O [C16-Hp-GGG-Jp, C16-KKWKGGGARLPR] (Palmitoyl-KKWKGGGARLPR-NH2) here?
Its IC50 is 8.05 ± 0.52 µM.

And the CC50 at 48 h (in vitro)?
Its CC50 at 48 h is greater than 200 µM.

Which results are given for CCCCCCCCCCCCCCCC(=O)N[C@@H](CCCCN)C(=O)N[C@@H](CCCCN)C(=O)N[C@@H](Cc1c[nH]c2ccccc12)C(=O)N[C@@H](CCCCN)C(=O)N[C@@H](C)C(=O)N[C@@H](CCCNC(=N)N)C(=O)N[C@@H](CC(C)C)C(=O)N1CCC[C@H]1C(=O)N[C@@H](CCCNC(=N)N)C(N)=O [C16-Hp-Jp, C16-KKWKARLPR] (Palmitoyl-KKWKARLPR-NH2)?
IC50 [1]: 2.48 ± 0.24 µM; CC50 at 48 h (in vitro): > 200 µM

With CCCCCCCCCCCCCCCC(=O)N[C@@H](C)C(=O)N[C@@H](CCCNC(=N)N)C(=O)N[C@@H](CC(C)C)C(=O)N1CCC[C@H]1C(=O)N[C@@H](CCCNC(=N)N)C(=O)NCC(=O)NCC(=O)NCC(=O)N[C@@H](CCCCN)C(=O)N[C@@H](CCCCN)C(=O)N[C@@H](Cc1c[nH]c2ccccc12)C(=O)N[C@@H](CCCCN)C(N)=O [C16-Jp-GGG-Hp, C16-ARLPRGGGKKWK] (Palmitoyl-ARLPRGGGKKWK-NH2) as the compound, how does the IC50 [1] read?
Its IC50 is 6.79 ± 0.17 µM.

And the CC50 at 48 h (in vitro)?
The CC50 at 48 h was greater than 200 µM.

With CCCCCCCCCCCCCCCC(=O)N[C@@H](C)C(=O)N[C@@H](CCCNC(=N)N)C(=O)N[C@@H](CC(C)C)C(=O)N1CCC[C@H]1C(=O)N[C@@H](CCCNC(=N)N)C(=O)N[C@@H](CCCCN)C(=O)N[C@@H](CCCCN)C(=O)N[C@@H](Cc1c[nH]c2ccccc12)C(=O)N[C@@H](CCCCN)C(N)=O [C16-Jp-Hp, C16-ARLPRKKWK] (Palmitoyl-ARLPRKKWK-NH2) as the compound, how does the IC50 [1] read?
The IC50 was 1.29 ± 0.4 µM.

And the CC50 at 48 h (in vitro)?
Its CC50 at 48 h is greater than 200 µM.

Which IC50 [1] does the source give for CCCCCCCCCCCCCCCCCC(=O)N[C@@H](CCCCN)C(=O)N[C@@H](CCCCN)C(=O)N[C@@H](Cc1c[nH]c2ccccc12)C(=O)N[C@@H](CCCCN)C(=O)NCC(=O)NCC(=O)NCC(=O)N[C@@H](C)C(=O)N[C@@H](CCCNC(=N)N)C(=O)N[C@@H](CC(C)C)C(=O)N1CCC[C@H]1C(=O)N[C@@H](CCCNC(=N)N)C(N)=O [C18-Hp-GGG-Jp, C18-KKWKGGGARLPR] (Stearoyl-KKWKGGGARLPR-NH2) here?
The IC50 was 6.99 ± 2 µM.

And the CC50 at 48 h (in vitro)?
The CC50 at 48 h was greater than 200 µM.

What does the source list for CCCCCCCCCCCCCCCCCC(=O)N[C@@H](C)C(=O)N[C@@H](CCCNC(=N)N)C(=O)N[C@@H](CC(C)C)C(=O)N1CCC[C@H]1C(=O)N[C@@H](CCCNC(=N)N)C(=O)NCC(=O)NCC(=O)NCC(=O)N[C@@H](CCCCN)C(=O)N[C@@H](CCCCN)C(=O)N[C@@H](Cc1c[nH]c2ccccc12)C(=O)N[C@@H](CCCCN)C(N)=O [C18-Jp-GGG-Hp, C18-ARLPRGGGKKWK] (Stearoyl-ARLPRGGGKKWK-NH2)?
IC50 [1]: 5.09 ± 0.35 µM; CC50 at 48 h (in vitro): > 200 µM

Which results are given for CCCCCCCCCCCCCCCCCCCC(=O)N[C@@H](CCCCN)C(=O)N[C@@H](CCCCN)C(=O)N[C@@H](Cc1c[nH]c2ccccc12)C(=O)N[C@@H](CCCCN)C(=O)NCC(=O)NCC(=O)NCC(=O)N[C@@H](C)C(=O)N[C@@H](CCCNC(=N)N)C(=O)N[C@@H](CC(C)C)C(=O)N1CCC[C@H]1C(=O)N[C@@H](CCCNC(=N)N)C(N)=O [C20-Hp-GGG-Jp, C20-KKWKGGGARLPR] (Arachidoyl-KKWKGGGARLPR-NH2)?
CC50: > 200 µM; IC50 [1]: 5.22 ± 0.37 µM

For CCCCCCCCCCCCCCCCCCCC(=O)N[C@@H](C)C(=O)N[C@@H](CCCNC(=N)N)C(=O)N[C@@H](CC(C)C)C(=O)N1CCC[C@H]1C(=O)N[C@@H](CCCNC(=N)N)C(=O)NCC(=O)NCC(=O)NCC(=O)N[C@@H](CCCCN)C(=O)N[C@@H](CCCCN)C(=O)N[C@@H](Cc1c[nH]c2ccccc12)C(=O)N[C@@H](CCCCN)C(N)=O [C20-Jp-GGG-Hp, C20-ARLPRGGGKKWK] (Arachidoyl-ARLPRGGGKKWK-NH2), which CC50 is on record?
Its CC50 is greater than 200 µM.

What about the IC50 [1] of the same compound?
Its IC50 is 4.04 ± 0.02 µM.

For NC(=O)c1ncn([C@@H]2O[C@H](CO)[C@@H](O)[C@H]2O)n1 [Ribavirin, ribavirin], which IC50 [2] is on record?
The IC50 was 8.47 ± 3.01 µM.

And the IC50 [3]?
The IC50 was 24.9 ± 1.1 µM.

What about the IC50 [4] of the same compound?
Its IC50 is 4.92 ± 1.45 µM.

What about the IC50 [5] of the same compound?
Its IC50 is 12.85 ± 0.08 µM.

What about the IC50 (influenza B virus) of the same compound?
The IC50 was 6.71 ± 0.93 µM.
